Data on 5 compounds can be found in patent publication US6586437B2, “(S)-hydroxynefazodone antipsychotic therapy” (Sepracor Inc., priority 1999, dated 2003).

pIC50: −log10 of the molar value. Structures can show the parent of a compound that is named as a salt.

For series [1] the following is noted: cited from earlier work.
The target of series [2] is α1 Receptor. The series can be described thus: α1 receptor binding. As to conditions: read-out: α1 Receptor Binding IC50, Alpha1.
The target of series [3] is T1, norepinephrine uptake, rat hypothalamus synaptosomes (Rattus norvegicus, UniProt Q9WTR4).
T1 construct: synaptosomes isolated at Cerep in a 0.32 M sucrose buffer from a male Wistar rat hypothalamus; from tissue; host or cells: male Wistar rat hypothalamus synaptosomes
T1 sequence (Q9WTR4 1-597): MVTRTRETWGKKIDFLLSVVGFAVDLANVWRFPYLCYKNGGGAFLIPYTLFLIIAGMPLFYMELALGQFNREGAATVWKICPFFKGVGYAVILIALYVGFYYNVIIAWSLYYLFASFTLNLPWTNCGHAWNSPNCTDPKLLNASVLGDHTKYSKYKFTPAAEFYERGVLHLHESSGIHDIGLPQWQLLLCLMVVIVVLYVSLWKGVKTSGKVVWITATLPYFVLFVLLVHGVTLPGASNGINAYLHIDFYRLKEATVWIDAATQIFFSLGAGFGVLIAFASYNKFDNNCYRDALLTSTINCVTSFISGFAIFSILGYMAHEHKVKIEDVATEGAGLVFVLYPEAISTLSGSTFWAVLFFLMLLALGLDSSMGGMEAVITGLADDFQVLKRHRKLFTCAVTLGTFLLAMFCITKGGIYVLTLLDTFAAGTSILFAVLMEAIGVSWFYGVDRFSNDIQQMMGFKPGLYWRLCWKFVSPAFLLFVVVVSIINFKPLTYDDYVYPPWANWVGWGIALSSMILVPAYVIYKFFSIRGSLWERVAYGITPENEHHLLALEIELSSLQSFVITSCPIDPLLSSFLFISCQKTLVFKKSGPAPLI
The series is described as follows: Norepinephrine uptake functional assay (synaptosomes). The series is classed as biochemical, male Wistar rat. The settings on record: [3H]-norepinephrine, read-out: Monoamine Neuronal Transport IC50, NE uptake. How it is done:
Norepinephrine Uptake Functional Assay
Characterization of norepinephrine uptake is performed using synaptosomes isolated at Cerep in a 0.32 M sucrose buffer from a male Wistar rat hypothalamus. The uptake of radiolabeled norepinephrine by synaptosomes (100 μg of proteins/point) is allowed by incubating them for 20 minutes at 37° C. in presence of test compounds and [3H]-norepinephrine (0.1 μCi/point). The experiment is performed in a deep well.
Synaptosomes and [3H]-norepinephrine are prepared in a Krebs buffer pH 7.4 containing 25 mM NaHCO3, 11 mM glucose and 50 μM ascorbic acid. This incubation buffer is oxygenated during 5 minutes before incubation. Basal control is incubated for 20 minutes at 4° C. in order to avoid any uptake. Following this incubation the uptake is stopped by filtration through an “unifilter 96-wells GFB ” Packard plate washed with Krebs buffer containing 25 mM NaHCO3 in order to eliminate the free [3H]-norepinephrine. The radioactivity associated to the synaptosomes retained onto the unifilter corresponding to the uptake is then measured with a microplate scintillation counter Topcount, Packard using a scintillation liquid microscint 0, Packard.
[See Perovics and Müller, op.cit. (1995).]

The test system of series [4] is alpha1-adrenergic receptors. The settings on record: cited from earlier work.
Series [5] relates to alpha2 adrenergic receptors. As to conditions: in vitro binding studies; cited from earlier work.
In series [6] the test system is beta adrenergic receptors. The settings on record: in vitro binding studies; cited from earlier work.
The target of series [7] is T2, 5-HT1A receptors (Homo sapiens, UniProt P08908).
T2 sequence (P08908 1-422): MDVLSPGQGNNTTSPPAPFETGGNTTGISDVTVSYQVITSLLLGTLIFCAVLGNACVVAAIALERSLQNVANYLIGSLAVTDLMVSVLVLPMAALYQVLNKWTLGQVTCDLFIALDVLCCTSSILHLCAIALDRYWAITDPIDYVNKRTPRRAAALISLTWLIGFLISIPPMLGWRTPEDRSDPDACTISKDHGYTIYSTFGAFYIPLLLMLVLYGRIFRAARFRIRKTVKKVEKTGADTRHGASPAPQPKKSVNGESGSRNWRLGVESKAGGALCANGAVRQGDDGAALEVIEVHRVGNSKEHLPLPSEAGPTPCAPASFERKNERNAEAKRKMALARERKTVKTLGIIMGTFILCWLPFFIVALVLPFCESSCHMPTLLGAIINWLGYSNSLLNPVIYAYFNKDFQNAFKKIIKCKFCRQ
As to conditions: in vitro binding studies; cited from earlier work.

Series [8] concerns cholinergic receptors. The settings on record: in vitro binding studies; cited from earlier work.
The subject of series [9] is dopaminergic receptors. The settings on record: in vitro binding studies; cited from earlier work.
Series [10] deals with benzodiazepine receptors. The settings on record: in vitro binding studies; cited from earlier work.

Consider `CCc1nn(CCCN2CCN(c3cccc(Cl)c3)CC2)c(=O)n1CCOc1ccccc1` [Nefazodone hydrochloride], for which, in series [1] (low and variable because of extensive metabolism), the absolute bioavailability result was “about 20%”.
As for `C[C@@H](O)c1nn(CCCN2CCN(c3cccc(Cl)c3)CC2)c(=O)n1CCOc1ccccc1` [(R)—OH, (R)-Hydroxynefazodone hydrochloride], the pIC50 was 6.44 in series [2] and 5.92 in series [3].
Taken in the same sequence, the figures for `CC(O)c1nn(CCCN2CCN(c3cccc(Cl)c3)CC2)c(=O)n1CCOc1ccccc1` (racemic) [(RS)—OH, 2-[3-[4-(3-chlorophenyl)1-piperazinyl]propyl]-5-(1-hydroxyethyl)-2,4-dihydro-4-(phenoxyethyl)-3H-1,2,4-triazol-3-one] were 6.42 and 6.00.
For `CCc1nn(CCCN2CCN(c3cccc(Cl)c3)CC2)c(=O)n1CCOc1ccccc1` [Nefazodone], the pIC50 in series [2] is 6.51. For the same compound, in [1] (in vivo), the half-life is 2 to 4 h and the “time of peak plasma concentrations” value is “about one”. In series [4], the “effect on alpha1-adrenergic receptors” value was “antagonize”. For the same compound, the “affinity for alpha2 adrenergic receptors” value in series [5] was “no significant affinity”. Also, the “affinity for beta adrenergic receptors” value in series [6] was “no significant affinity”. Moreover, the “affinity for 5-HT1A receptors” value in series [7] was “no significant affinity”. Besides, in [8], the “affinity for cholinergic receptors” value is on record as “no significant affinity”. Also, the “affinity for dopaminergic receptors” value in series [9] is recorded as “no significant affinity”. The “affinity for benzodiazepine receptors” value in series [10] is listed as “no significant affinity”.
For the compound `C[C@H](O)c1nn(CCCN2CCN(c3cccc(Cl)c3)CC2)c(=O)n1CCOc1ccccc1` [(S)—OH, (S)-2-{3-[4-(3-Chlorophenyl)-1-piperazinyl]propyl}-4-(2-phenoxyethyl)-5-[1-(hydroxy)-ethyl]-2,4-dihydro-[1,2,4]triazol-3-one], the figures for the pIC50 in series [2] and in series [3] were 6.38 and 5.82, respectively.
